Source: US6046168A, “Peptide inhibits blood triglyceride level” (Hankyu-Kyoei Bussan Co., Ltd., priority 1993, dated 2000)
Residues, ends and D or L forms follow the SMILES beside them.

Tested on: Healthy albino mice
Test: Serum TG elevation inhibiting action at the time of in vivo lipid loading (olive oil)
Details: for Ratio of Increase in Blood TG Levels (%): blood collected 3 hours after
Protocol: Serum TG elevation inhibiting action at the time of in vivo lipid loading was examined on the three peptides of the invention inhibiting elevations of TG levels in blood (i.e., the peptide having the amino acid sequence of SEQ ID NO: 1 and the peptides Val-Thr-Leu and Val-Tyr-Pro synthesized by the method described in Example 4). Healthy albino mice (5-10 weeks old; body weight: about 20-30 g) were used in this experiment. To each mouse, 250 mg of olive oil and an aqueous solution of the above peptide were administered orally. Three hours thereafter, blood was collected under anesthesia with Nembutal. After separation of the blood, the TG level in blood was determined.

## CC(C)C[C@H](NC(=O)[C@@H](NC(=O)[C@@H](N)C(C)C)[C@@H](C)O)C(=O)O [Val--Thr--Leu, H-Val-Thr-Leu-OH] (H-Val-Thr-Leu-OH)
Dose 0.1 mg/mouse oral with 250 mg olive oil
  Ratio of Increase in Blood TG Levels (%): 30%
Dose 0.2 mg/mouse oral with 250 mg olive oil
  Ratio of Increase in Blood TG Levels (%): 33%
Dose 1.0 mg/mouse oral with 250 mg olive oil
  Ratio of Increase in Blood TG Levels (%): 73%
Dose 2.5 mg/mouse oral with 250 mg olive oil
  Ratio of Increase in Blood TG Levels (%): 76%
Dose 5.0 mg/mouse oral with 250 mg olive oil
  Ratio of Increase in Blood TG Levels (%): 79%
oral, mice loaded with 250 mg olive oil, blood TG after 3 hours
  ID50: Dose (mg/mouse) exhibiting 50% inhibition: 0.43 mg/mouse
Relative to the proteolysate (= 1), times
  Specific Activity: 65
